Data as given in US6969702B2, “Compounds and methods for increasing neurogenesis” (priority 2002, dated 2005).
Marks after values point to notes of the source that are not given here. Bridge positions count the residues as written; N and C are the ends. Square brackets hold non-standard residues; d marks the D form. Peptide text beside a SMILES is read from it.

Legend:
[1] = test system: Adult neural stem cells; assay: Flow cytometry for early neuronal marker Doublecortin; conditions: Table 6; 100 nM; 4 days
[2] = test system: mouse adult neural stem cells; assay: ATP-assay: proliferation (ATP levels) of neurosphere-derived cells; conditions: for proliferation of neural stem cells: cAMP activators, GPCR-independent
[3] = test system: cAMP activation in mouse adult neural stem cells; assay: cAMP detection (HitHunter EFC Cyclic AMP Chemiluminescence Assay); conditions: for Fold Induction cAMP: vs vehicle
[4] = Table 2, 1 nM (cAMP concentration)
[5] = Table 2, 100 nM (cAMP concentration)
[6] = Table 2, 1000 nM, 4 days, vs vehicle
[7] = Table 2, 10 nM (cAMP concentration)
[8] = Table 1, 100 nM, after 15 minutes
[9] = Table 1, 100 nM, 4 days in culture
[10] = Mus musculus, Neural stem cell, 96 h, read-out: Fold Induction ATP

## C[C@H](NC(=O)[C@@H](Cc1c[nH]c2ccccc12)NC(=O)[C@@H](N)Cc1c[nH]cn1)C(=O)N[C@@H](Cc1c[nH]c2ccccc12)C(=O)N[C@H](Cc1ccccc1)C(=O)N[C@@H](CCCCN)C(N)=O [(D-Trp7.Ala8.D-Phe10)-α-Melanocyte stimulating hormone F: 6-11/GHRP] (H-H[dW]AW[dF]K-NH2; N-terminus and C-terminus assumed)
[1]
  % Doublecortin-positive cells: 5.3%

## CC(C)C[C@H](NC(=O)[C@H](Cc1ccccc1)NC(=O)CNC(=O)[C@H](NC(=O)[C@@H](N)Cc1ccc(O)cc1)[C@H](C)O)C(=O)N[C@H](C(=O)O)[C@@H](C)O [DTLET]
[2]; Table 2, 10 nM, 4 days
  ATP (nM ATP/well): 9.2 ± 0.9 nM ATP/well
[1]
  % Doublecortin-positive cells: 4.1%

## CC(C)C[C@H](NC(=O)[C@H](CC(C)C)NC(=O)[C@@H](Cc1c[nH]c2ccccc12)NC(=O)[C@H](Cc1ccccc1)NC(=O)[C@@H](Cc1c[nH]c2ccccc12)NC(=O)[C@H](CCC(N)=O)NC(=O)[C@H](CCC(N)=O)NC(=O)[C@@H]1CCCN1C(=O)[C@H](CCCCN)NC(=O)[C@@H]1CCCN1C(=O)[C@@H](CCCNC(=N)N)NC(=O)[C@@H]1CCCN1C(=O)CNC(=O)[C@H](CC(C)C)NC(=O)[C@H](CC(C)C)NC(=O)[C@H](Cc1ccc(O)cc1)NC(=O)CNC(=O)[C@H](C)NC(=O)[C@H](CO)NC(=O)[C@H](CC(N)=O)NC(=O)[C@H](CC(C)C)NC(=O)[C@@H](NC(=O)[C@H](Cc1c[nH]c2ccccc12)NC(=O)CN)[C@@H](C)O)C(N)=O [Galanin (1-13)-Spantide-Amide, M40] (H-GWTLNSAGYLLGP[dR]PKPQQ[dW]F[dW]LL-NH2; N-terminus assumed)
[3]; [4]
  cAMP (pmol/well): 0.82 ± 0.08 pmol/well
[2]; Table 2, 100 nM, 4 days
  ATP (nM ATP/well): 7.10 ± 0.5 nM ATP/well

## CC[C@H](C)[C@H](NC(=O)[C@H](Cc1ccccc1)NC(=O)[C@H](CCC(=O)O)NC(=O)[C@H](CCCCN)NC(=O)[C@H](C)NC(=O)[C@H](C)NC(=O)[C@H](CCC(N)=O)NC(=O)CNC(=O)[C@H](CCC(=O)O)NC(=O)[C@H](CC(C)C)NC(=O)[C@H](Cc1ccc(O)cc1)NC(=O)[C@H](CO)NC(=O)[C@H](CO)NC(=O)[C@@H](NC(=O)[C@H](CC(=O)O)NC(=O)[C@H](CO)NC(=O)[C@@H](NC(=O)[C@H](Cc1ccccc1)NC(=O)[C@@H](NC(=O)CNC(=O)[C@H](CCC(=O)O)NC(=O)[C@H](C)NC(=O)[C@@H](N)Cc1c[nH]cn1)[C@@H](C)O)[C@@H](C)O)C(C)C)C(=O)N[C@@H](C)C(=O)N[C@@H](Cc1c[nH]c2ccccc12)C(=O)N[C@@H](CC(C)C)C(=O)N[C@H](C(=O)N[C@@H](CCCCN)C(=O)NCC(=O)N[C@@H](CCCNC(=N)N)C(=O)NCC(=O)O)C(C)C [Glucagon-Like Peptide-1 (7-37) (Human)]
[3]; [5]
  cAMP (pmol/well): 0.08 ± 0.01 pmol/well
[3]; Table 2, 100 nM
  Fold Induction cAMP: 1.4* (100 nM) fold
[2]; Table 2, 1000 nM, 4 days
  ATP (nM ATP/well): 18.3 ± 1.4 nM ATP/well
[2]; [6]
  Fold Induction ATP: 1.3** fold

## CCCCC#Cc1nc(N)c2ncn([C@@H]3O[C@H](C(=O)NCC)[C@@H](O)[C@H]3O)c2n1 [HE-NECA]
[3]; [7]
  cAMP (pmol/well): 3.32 ± 0.28 pmol/well
[3]; Table 2, 10 nM
  Fold Induction cAMP: 1.8*** (10 nM) fold
[2]; Table 2, 1000 nM, 4 days
  ATP (nM ATP/well): 8.2 ± 1.1 nM ATP/well
[2]; [6]
  Fold Induction ATP: 1.8** fold

## CCCC(=O)Nc1ncnc2c1ncn2[C@@H]1O[C@H](CO)[C@@H](O)[C@H]1OC(=O)CCC [N-6,2-O-Dibutyryladenosine, n-6,2-o-dibutyryladenosine]
[3]; [8]
  cAMP (pmol/well): 0.10 ± 0.01 pmol/well
  Fold Induction cAMP: 4.5** fold
[2]; [9]
  ATP (nM ATP/well): 13.9 ± 1.1 nM ATP/well
[2]; Table 1, 100 nM, 4 days, vs vehicle treated cells
  Fold Induction ATP: 1.5** fold
[2]
  proliferation of neural stem cells: increase

## Oc1ccc2c3c1O[C@H]1c4[nH]c5c(c4C[C@@]4(O)[C@@H](C2)N(CC2CC2)CC[C@]314)C[C@@]1(O)[C@H]2Cc3ccc(O)c4c3[C@@]1(CCN2CC1CC1)[C@H]5O4 [Nor-Binaltorphimine, nor-Binaltorphimine]
[3]; Mus musculus, Neural stem cell, read-out: Fold Induction cAMP
  fold induction at 10 pM: 6.3
[3]; Table 2, 0.01 nM (bracketed cAMP concentration)
  cAMP (pmol/well): 6.10 ± 3.72 pmol/well
[2]; [10]
  fold induction at 0.0001 µM: 1.4
[2]; Table 2, 0.1 nM, 4 days
  ATP (nM ATP/well): 19.4 ± 3.2 nM ATP/well

## COc1ccc(C2CNC(=O)C2)cc1OC1CCCC1 (centres unmarked) [Rolipram, rolipram]
[3]; Mus musculus, Neural stem cell, 0.25 h, read-out: Fold Induction cAMP
  fold induction at 0.1 µM: 3.8
[3]; [8]
  cAMP (pmol/well): 0.09 ± 0.03 pmol/well
[2]; [10]
  fold induction at 0.1 µM: 1.1
[2]; [9]
  ATP (nM ATP/well): 10.4 ± 0.4 nM ATP/well
[2]
  proliferation of neural stem cells: increase

## CC[C@H](C)[C@H](NC(=O)[C@H](CO)NC(=O)[C@H](CC(N)=O)NC(=O)[C@H](CC(C)C)NC(=O)[C@H](Cc1ccc(O)cc1)NC(=O)[C@H](CCCCN)NC(=O)[C@H](CCCCN)NC(=O)[C@@H](NC(=O)[C@H](C)NC(=O)[C@H](CCSC)NC(=O)[C@H](CCC(N)=O)NC(=O)[C@H](CCCCN)NC(=O)[C@H](CCCNC(=N)N)NC(=O)[C@H](CC(C)C)NC(=O)[C@H](CCCNC(=N)N)NC(=O)[C@@H](NC(=O)[C@H](Cc1ccc(O)cc1)NC(=O)[C@H](CC(N)=O)NC(=O)[C@H](CC(=O)O)NC(=O)[C@@H](NC(=O)[C@H](Cc1ccccc1)NC(=O)[C@@H](NC(=O)[C@H](C)NC(=O)[C@H](CC(=O)O)NC(=O)[C@H](CO)NC(=O)[C@@H](N)Cc1c[nH]cn1)C(C)C)[C@@H](C)O)[C@@H](C)O)C(C)C)C(=O)N[C@@H](CC(C)C)C(=O)N[C@@H](CC(N)=O)C(N)=O [Vasoactive Intestinal Peptide (Human, Porcine, Rat)]
[3]; [5]
  cAMP (pmol/well): 0.39 ± 0.12 pmol/well
[2]; Table 2, 1000 nM, 4 days
  ATP (nM ATP/well): 20.6 ± 1.2 nM ATP/well

## CSCC[C@H](NC(=O)[C@H](CC(C)C)NC(=O)[C@@H]1CCCN1C(=O)[C@H](Cc1ccc(O)cc1)NC(=O)[C@H](Cc1ccccc1)NC(=O)[C@@H]1CSSC[C@H](NC(=O)[C@@H]2CCCN2C(=O)[C@@H](N)CCCNC(=N)N)C(=O)N2CCC[C@H]2C(=O)N[C@@H](CCC(N)=O)C(=O)N1)C(N)=O [[Cys3,6, Tyr8, Pro9]-Substance P] (H-RPCPQCFYPLM-NH2; disulfide 3-6 (inferred); N-terminus and C-terminus assumed)
[3]; [5]
  cAMP (pmol/well): 0.29 ± 10 pmol/well
[2]; Table 2, 100 nM, 4 days
  ATP (nM ATP/well): 11.2 ± 0.4 nM ATP/well

## CC(C)C[C@H](NC(=O)[C@@H]1CCCN1C(=O)[C@H](CO)NC(=O)[C@H](Cc1ccccc1)NC(=O)CNC(=O)[C@@H]1CCCN1C(=O)[C@@H]1CCCN1C(=O)[C@@H](N)CCCNC(=N)N)C(=O)O [[Des-Arg9, Leu8]-Bradykinin]
[3]; [4]
  cAMP (pmol/well): 0.09 ± 0.02 pmol/well
[3]; Table 2, 1 nM
  Fold Induction cAMP: 2.6* (1 nM) fold
[2]; Table 2, 10 nM, 4 days
  ATP (nM ATP/well): 9.8 ± 0.4 nM ATP/well
[2]; Table 2, 10 nM, 4 days, vs vehicle
  Fold Induction ATP: 1.1* fold

## CCCC[C@H](NC(=O)[C@H](CO)NC(=O)[C@H](CC(N)=O)NC(=O)[C@H](CC(C)C)NC(=O)[C@H](Cc1c[nH]cn1)NC(=O)[C@H](CCCCN)NC(=O)CNC(=O)[C@H](CC(C)C)NC(=O)[C@H](CC(N)=O)NC(=O)[C@H](Cc1c[nH]cn1)NC(=O)[C@H](CCCC)NC(=O)[C@H](CC(C)C)NC(=O)[C@H](CCC(N)=O)NC(=O)[C@@H](NC(=O)[C@H](CCC(=O)O)NC(=O)[C@H](CO)NC(=O)[C@@H](NC(=O)[C@@H](N)CO)C(C)C)[C@@H](C)CC)C(=O)N[C@@H](CCC(=O)O)C(=O)N[C@@H](CCCNC(=N)N)C(=O)N[C@H](C(=O)N[C@@H](CCC(=O)O)C(=O)N[C@@H](Cc1c[nH]c2ccccc12)C(=O)N[C@@H](CC(C)C)C(=O)N[C@@H](CCCNC(=N)N)C(=O)N[C@@H](CCCCN)C(=O)N[C@@H](CCCCN)C(=O)N[C@@H](CC(C)C)C(=O)N[C@@H](CCC(N)=O)C(=O)N[C@@H](CC(=O)O)C(=O)N[C@H](C(=O)N[C@@H](Cc1c[nH]cn1)C(=O)N[C@@H](CC(N)=O)C(=O)N[C@@H](Cc1ccc(O)cc1)C(N)=O)C(C)C)C(C)C [[Nle8,18, Tyr34]-Parathyroid Hormone (1-34) Amide (Human)]
[3]; [7]
  cAMP (pmol/well): 0.16 ± 0.05 pmol/well
[3]; Table 2, 10 nM
  Fold Induction cAMP: 2.6* (10 nM) fold
[2]; Table 2, 1000 nM, 4 days
  ATP (nM ATP/well): 23.5 ± 2.7 nM ATP/well
[2]; [6]
  Fold Induction ATP: 1.7** fold

## CC(C)C[C@H](NC(=O)CN(C)C(=O)[C@H](Cc1ccccc1)NC(=O)[C@H](Cc1ccccc1)NC(=O)[C@H](CCC(N)=O)NC(=O)[C@H](CCC(N)=O)NC(=O)[C@@H]1CCCN1C(=O)[C@H](CCCCN)NC(=O)[C@@H]1CCCN1C(=O)[C@@H](N)CCCNC(=N)N)C(=O)N[C@@H](CCS(C)(=O)=O)C(N)=O [[Sar9, Met (0)11]-Substance P]
[3]; [5]
  cAMP (pmol/well): 0.16 ± 0.05 pmol/well
[2]; Table 2, 100 nM, 4 days
  ATP (nM ATP/well): 39.7 ± 2.1 nM ATP/well
